{
  "source": "paper PMC9534909",
  "about": "“BMS794833 inhibits macrophage efferocytosis by directly binding to MERTK and inhibiting its activity” (Experimental & Molecular Medicine, 2022)",
  "key": {"MERTK [1]": {"target": "T1, MERTK (Homo sapiens, UniProt Q12866, K591R/K693R/K702R/K856R)", "T1 construct": "kinase domain (residues 571–864), KR mutant", "T1 sequence (Q12866 571-864 K591R/K693R/K702R/K856R)": "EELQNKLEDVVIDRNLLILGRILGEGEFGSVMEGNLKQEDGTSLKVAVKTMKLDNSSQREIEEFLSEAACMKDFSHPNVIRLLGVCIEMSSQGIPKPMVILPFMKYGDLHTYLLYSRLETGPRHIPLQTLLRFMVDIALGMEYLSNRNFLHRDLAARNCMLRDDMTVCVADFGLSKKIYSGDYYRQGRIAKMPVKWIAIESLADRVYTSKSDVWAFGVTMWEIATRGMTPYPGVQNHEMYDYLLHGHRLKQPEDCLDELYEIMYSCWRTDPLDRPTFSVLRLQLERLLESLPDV", "experiment": "X-ray cocrystal structure at […] Å", "format": "binding"}, "MERTK [2]": {"target": "T2, MERTK (Homo sapiens, UniProt Q12866)", "T2 construct": "kinase domain (residues 571–864, wild type; WT)", "T2 sequence (Q12866 571-864)": "T1 sequence (Q12866 571-864 K591R/K693R/K702R/K856R) with R21K, R123K, R132K, R286K", "experiment": "HTRF KinEASE-TK kinase kinetic assay", "format": "biochemical"}},
  "note": "Numbering of substitutions follows the chain as printed.",
  "data": [
    {"smiles": "Nc1nccc(Oc2ccc(NC(=O)c3c[nH]cc(-c4ccc(F)cc4)c3=O)cc2F)c1Cl", "note": "[BMS794833, N-[4-(2-amino-3-chloropyridin-4-yl)oxy-3-fluorophenyl]-5-(4-fluorophenyl)-4-oxo-1H-pyridine-3-carboxamide]", "values": [
      {"measurement": "X-ray cocrystal structure at 2.16 Å", "setting": "MERTK [1]", "value": "clear electron density map for BMS794833 showed that it occupied both the ATP-binding pocket and the allosteric back pocket"},
      {"measurement": "Ki", "setting": "MERTK [2]", "value": 22.4, "unit": "nM"}
    ]}
  ]
}
